Results as given in patent US20240317735A1, “HYDROISOQUINOLINE OR HYDRONAPHTHYRIDINE COMPOUNDS FOR THE TREATMENT OF AUTOIMMUNE DISEASE” (Hoffmann-La Roche Inc., priority 2020, published 2024).

Key:
hERG channel = molecular target: T1, hERG channel (Homo sapiens, UniProt Q12809); experiment: hERG channel inhibition assay (patch-clamp, CHOhERG cells); assay type: cell-based; conditions: for IC50 / IC20: CHOhERG cells, whole-cell patch-clamp; for IC20: human, CHO cells stably expressing hERG (CHOhERG); for hERG IC20/TLR7 IC50 / hERG IC20/TLR8 IC50 / hERG IC20/TLR9 IC50: safety ratio; for hERG IC20/TLR7 IC50: hERG IC20 over HEK/hTLR7 IC50; for hERG IC20/TLR8 IC50: hERG IC20 over HEK/hTLR8 IC50; for hERG IC20/TLR9 IC50: hERG IC20 over HEK/hTLR9 IC50
T1 construct: expressed in transfected cells; host or cells: CHO (CHOhERG)
Method: The hERG K^+ channels were cloned in humans and stably expressed in a CHO (Chinese hamster ovary) cell line. CHOhERG cells were used for patch-clamp (voltage-clamp, whole-cell) experiments. Cells were stimulated by a voltage pattern to activate hERG channels and conduct IKhERG currents (rapid delayed outward rectifier potassium current of the hERG channel). After the cells were stabilized for a few minutes, the amplitude and kinetics of IKhERG were recorded at a stimulation frequency of 0.1 Hz (6 bpm). Thereafter, the test compound was added to the preparation at increasing concentrations. For each concentration, an attempt was made to reach a steady-state effect, usually, this was achieved within 3-10 min at which time the next highest concentration was applied. The amplitude and kinetics of IKhERG are recorded in each concentration of the drug which were compared to the control values (taken as 100%). (references: Redfern W S, Carlsson L, Davis A S, Lynch W G, MacKenzie I, Palethorpe S, Siegl P K, Strang I, Sullivan A T, Wallis R, Camm A J, Hammond T G. 2003; Relationships between preclinical cardiac electrophysiology, clinical QT interval prolongation and torsade de pointes for a broad range of drugs: evidence for a provisional safety margin in drug development. Cardiovasc. Res. 58:32-45, Sanguinetti MC, Tristani-Firouzi M. 2006; hERG potassium channels and cardiac arrhythmia. Nature 440:463-469, Webster R, Leishman D, Walker D. 2002; Towards a drug concentration effect relationship for QT prolongation and torsades de pointes. Curr. Opin. Drug Discov. Devel. 5:116-26).

TLR9 = molecular target: T2, TLR9 (Homo sapiens, UniProt Q9NR96); experiment: Human PBMC cell-based assay (CpG ODN 2216 stimulation); set-up: These cells express TLR7, TLR8, or TLR9, and therefore are natural responders to respective ligand stimulation; endogenous in cells; host or cells: human PBMC from healthy donor whole blood; conditions: CpG ODN 2216 at 1 μM, overnight, read-out: hPBMC/TLR9 IC50
T2 sequence (Q9NR96 26-1032): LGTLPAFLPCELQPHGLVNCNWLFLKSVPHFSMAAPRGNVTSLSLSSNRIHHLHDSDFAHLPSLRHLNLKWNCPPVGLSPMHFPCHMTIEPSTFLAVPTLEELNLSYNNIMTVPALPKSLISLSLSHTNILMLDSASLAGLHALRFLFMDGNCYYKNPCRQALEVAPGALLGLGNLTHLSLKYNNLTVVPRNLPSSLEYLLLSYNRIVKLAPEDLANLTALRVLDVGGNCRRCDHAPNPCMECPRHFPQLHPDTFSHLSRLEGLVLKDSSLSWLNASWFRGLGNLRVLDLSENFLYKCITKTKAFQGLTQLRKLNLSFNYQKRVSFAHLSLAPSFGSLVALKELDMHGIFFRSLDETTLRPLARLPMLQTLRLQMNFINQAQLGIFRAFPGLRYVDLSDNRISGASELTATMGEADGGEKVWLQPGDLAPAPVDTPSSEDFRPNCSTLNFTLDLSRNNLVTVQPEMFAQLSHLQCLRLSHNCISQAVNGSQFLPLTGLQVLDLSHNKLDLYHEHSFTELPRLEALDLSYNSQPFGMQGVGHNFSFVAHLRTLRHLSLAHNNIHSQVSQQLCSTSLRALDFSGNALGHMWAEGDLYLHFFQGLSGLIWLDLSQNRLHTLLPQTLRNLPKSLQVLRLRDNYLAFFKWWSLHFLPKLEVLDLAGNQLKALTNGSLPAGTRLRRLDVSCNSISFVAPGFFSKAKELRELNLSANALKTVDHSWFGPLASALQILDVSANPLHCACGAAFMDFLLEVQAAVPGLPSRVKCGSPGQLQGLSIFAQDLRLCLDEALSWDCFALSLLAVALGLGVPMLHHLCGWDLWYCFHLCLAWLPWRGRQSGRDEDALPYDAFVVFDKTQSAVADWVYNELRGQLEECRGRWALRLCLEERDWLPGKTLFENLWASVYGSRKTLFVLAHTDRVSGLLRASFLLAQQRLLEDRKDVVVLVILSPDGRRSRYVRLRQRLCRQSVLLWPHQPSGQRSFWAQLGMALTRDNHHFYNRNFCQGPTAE
From the text: Unlike the HEK reporter cell lines, human peripheral blood mononuclear cell (PBMC) represents primary human immune cells in blood mainly consisting of lymphocytes, monocytes, and dendritic cells. These cells express TLR7, TLR8, or TLR9, and therefore are natural responders to respective ligand stimulation. Upon activation of these TLRs, PBMCs secrete similar cytokines and chemokines in vitro and in vivo, and therefore the in vitro potency of a TLR7/8/9 antagonist in human PBMC is readily translatable to its pharmacodynamics response in vivo.
Human peripheral blood mononuclear cells (PBMC) were isolated from freshly-drawn lithium-heparinized (Lithium Heparin Plus blood Collection tube, BD Vacutainer®) healthy donor whole blood by density gradient (Ficoll-Paque™ PLUS, GE Healthcare life Sciences). Briefly, 50 mL of blood was diluted with 25 mL PBS (without Ca^2+, Mg^2+) in a 50 mL conical tube with porous barrier (Leucosep tube, Greiner bio-one), where 15.5 mL Ficoll-Paque was under laid after spinning. Tubes were centrifuged for 20 minutes at 800×g (1946 rpm) with the brake in the off position, and PBMC were collected from the buffy coat. Cells were then washed twice in PBS, and red blood cells were lysed by suspension in 2 mL (Red Blood Cell Lysis Buffer, Alfa Aesar) for 5-10 minutes at room temperature. After a final wash in PBS, PBMC were resuspended at a final concentration of 2×10^6 cells/mL in RPMI-1640 media with GlutaMAX™ (Gibco) supplemented with 10% Fetal Bovine Serum (Sigma) and plated at 150 μL/well (3×10^5 cells/well) in tissue culture treated round bottom 96-well plates (Corning Incorporated). Antagonist compounds (compounds of this invention) solubilized and serial diluted in 100% DMSO were added in duplicate to cells to yield a final concentration of 1% DMSO (v/v). PBMC were incubated with antagonist compounds for 30 minutes at 37° C., 5% CO2 before adding various TLR agonist reagents in 48 μL complete media per well as follows (final concentrations indicated): CpG ODN 2216 (InvivoGen) at 1 μM for TLR9, ORN 06/LyoVec (InvivoGen) at […] for TLR8 and R848 (InvivoGen) at 1p g/mL for TLR7 and TLR8. PBMC were incubated overnight at 37° C. with 5% CO2. Cell culture supernatants were collected, and levels of various human cytokines were assessed by Luminex assay (ProcartaPlex™ Multiplex Immunoassay, Invitrogen) or ELISA procedure according to the manufacturer's recommended protocol (eBioscience, ThermoFisher Scientific). Viability of the cells was also checked with Cell Viability Assay (CellTiter Glo®Luminescent Cell Viability Assay, Promega).

T1 sequence (Q12809 whole entry): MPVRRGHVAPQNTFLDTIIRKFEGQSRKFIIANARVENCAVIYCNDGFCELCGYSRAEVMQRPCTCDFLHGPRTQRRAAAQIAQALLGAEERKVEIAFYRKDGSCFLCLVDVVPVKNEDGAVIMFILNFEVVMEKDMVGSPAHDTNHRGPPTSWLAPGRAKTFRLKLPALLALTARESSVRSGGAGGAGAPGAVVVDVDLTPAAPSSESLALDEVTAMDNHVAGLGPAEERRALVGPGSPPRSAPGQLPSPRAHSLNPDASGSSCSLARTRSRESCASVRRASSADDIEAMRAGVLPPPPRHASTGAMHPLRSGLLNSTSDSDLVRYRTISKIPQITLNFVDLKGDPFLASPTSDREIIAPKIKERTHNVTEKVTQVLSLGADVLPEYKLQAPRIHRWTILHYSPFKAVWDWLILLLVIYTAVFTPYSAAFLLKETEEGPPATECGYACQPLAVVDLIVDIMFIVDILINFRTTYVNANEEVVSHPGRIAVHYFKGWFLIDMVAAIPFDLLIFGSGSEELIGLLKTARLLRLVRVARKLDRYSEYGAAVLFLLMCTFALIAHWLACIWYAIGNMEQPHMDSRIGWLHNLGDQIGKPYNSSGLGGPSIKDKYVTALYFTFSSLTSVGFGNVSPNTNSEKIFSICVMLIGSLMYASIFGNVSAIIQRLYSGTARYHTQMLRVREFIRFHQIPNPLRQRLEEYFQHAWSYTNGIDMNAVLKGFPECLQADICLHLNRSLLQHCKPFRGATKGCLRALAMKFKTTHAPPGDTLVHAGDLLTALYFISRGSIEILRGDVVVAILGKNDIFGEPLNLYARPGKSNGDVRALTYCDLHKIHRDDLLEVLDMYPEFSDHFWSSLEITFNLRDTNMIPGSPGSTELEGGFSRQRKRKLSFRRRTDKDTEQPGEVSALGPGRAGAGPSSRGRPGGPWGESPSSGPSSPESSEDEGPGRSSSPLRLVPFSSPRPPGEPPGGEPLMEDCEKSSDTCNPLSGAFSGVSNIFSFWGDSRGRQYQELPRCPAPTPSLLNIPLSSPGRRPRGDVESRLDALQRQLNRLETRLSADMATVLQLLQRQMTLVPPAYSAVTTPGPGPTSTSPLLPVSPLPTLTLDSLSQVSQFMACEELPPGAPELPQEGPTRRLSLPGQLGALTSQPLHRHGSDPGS

Row | SMILES | IC50 (TLR9) | IC50 (hERG channel) | IC20 (hERG channel) | hERG IC20/TLR7 IC50 (hERG channel) | hERG IC20/TLR8 IC50 (hERG channel) | hERG IC20/TLR9 IC50 (hERG channel)
1 | C[C@H]1CN(c2ccnc3c2cnn3C)Cc2ccc(N3CCNCC3)cc21 [Example 1, (4R)-4-methyl-2-(1-methylpyrazolo[3,4-b]pyridin-4-yl)-6-piperazin-1-yl-3,4-dihydro-1H-isoquinoline] | 396 nM | > 20000 nM | 6400 nM | 2133.3 | 3200.0 | 32.3
2 | Cn1ncc2c(N3CCc4cc(N5CCNCC5)ccc4C3)ccnc21 [Example 3, 2-(1-methylpyrazolo[3,4-b]pyridin-4-yl)-6-piperazin-1-yl-3,4-dihydro-1H-isoquinoline] | 434 nM | > 20000 nM | > 10000 nM | >526.3 | >178.6 | >54.1
3 | CC1CN(c2ccnc3c2cnn3C)Cc2ccc(N3CCC4(CCNCC4)CC3)cc21 (centres unmarked) [Example 4, 3-[4-methyl-2-(1-methylpyrazolo[3,4-b]pyridin-4-yl)-3,4-dihydro-1H-isoquinolin-6-yl]-3,9-diazaspiro[5.5]undecane] | 265 nM | – | – | – | – | –
4 | Cc1cc(N2Cc3ccc(N4CCC5(CCNCC5)CC4)cc3C(C)C2)c2cnn(C)c2n1 (centres unmarked) [Example 5, 3-[2-(1,6-dimethylpyrazolo[3,4-b]pyridin-4-yl)-4-methyl-3,4-dihydro-1H-isoquinolin-6-yl]-3,9-diazaspiro[5.5]undecane] | 156 nM | – | – | – | – | –
5 | C[C@H]1CN(c2ccnc3c2cnn3C)Cc2ccc(N3CCN(c4cc5c(cn4)CCNC5)CC3)cc21 [Example 9, 7-[4-[(4R)-4-methyl-2-(1-methylpyrazolo[3,4-b]pyridin-4-yl)-3,4-dihydro-1H-isoquinolin-6-yl]piperazin-1-yl]-1,2,3,4-tetrahydro-2,6-naphthyridine] | 326 nM | – | – | – | – | –
6 | C[C@H]1CN(c2ccnc3c2cnn3C)Cc2ccc(OC[C@H]3CNCCN3)cc21 [Example 18, (4R)-4-methyl-2-(1-methylpyrazolo[3,4-b]pyridin-4-yl)-6-[[(2R)-piperazin-2-yl]methoxy]-3,4-dihydro-1H-isoquinoline] | 365 nM | > 20000 nM | > 10000 nM | >1250.0 | >2500.0 | >90.1
7 | C[C@H]1CN(c2ccnc3c2cnn3C)Cc2ccc(OC[C@@H]3CNCCN3)cc21 [Example 19, (4R)-4-methyl-2-(1-methylpyrazolo[3,4-b]pyridin-4-yl)-6-[[(2S)-piperazin-2-yl]methoxy]-3,4-dihydro-1H-isoquinoline] | 395 nM | > 20000 nM | 6300 nM | 787.5 | 1575.0 | 62.4
8 | CO[C@@H]1CN(c2ccc3c(n2)[C@@H](C)CN(c2cc(C)nc4c2cnn4C)C3)C[C@H]1N [Example 63, (3R,4R)-4-methoxy-1-[(8S)-6-(1,6-dimethylpyrazolo[3,4-b]pyridin-4-yl)-8-methyl-7,8-dihydro-5H-1,6-naphthyridin-2-yl]pyrrolidin-3-amine] | 430 nM | – | – | – | – | –

The next lines start with results.

Row | IC50 (TLR9) | SMILES | IC50 (hERG channel) | IC20 (hERG channel) | hERG IC20/TLR7 IC50 (hERG channel) | hERG IC20/TLR8 IC50 (hERG channel) | hERG IC20/TLR9 IC50 (hERG channel)
9 | 240 nM | CO[C@@H]1CN(c2ccc3c(c2)[C@@H](C)CN(c2cc(C)nc4c2cnn4C)C3)C[C@H]1N [Example 23, (3R,4R)-4-methoxy-1-[(4R)-2-(1,6-dimethylpyrazolo[3,4-b]pyridin-4-yl)-4-methyl-3,4-dihydro-1H-isoquinolin-6-yl]pyrrolidin-3-amine] | – | – | – | – | –
10 | 271 nM | C[C@H]1CN(c2ccnc3c2cnn3C)Cc2ccc(N3CCC(N4CC(N)C4)CC3)cc21 [Example 28, 1-[1-[(4R)-4-methyl-2-(1-methylpyrazolo[3,4-b]pyridin-4-yl)-3,4-dihydro-1H-isoquinolin-6-yl]-4-piperidyl]azetidin-3-amine] | – | – | – | – | –
11 | 290 nM | Cc1cc(N2Cc3ccc(N4C[C@@H](N)[C@H](O)C4)cc3[C@@H](C)C2)c2cnn(C)c2n1 [Example 47, trans-4-amino-1-[(4R)-2-(1,6-dimethylpyrazolo[3,4-b]pyridin-4-yl)-4-methyl-3,4-dihydro-1H-isoquinolin-6-yl]pyrrolidin-3-ol] | – | – | – | – | –
12 | 475 nM | C[C@H]1CN(c2ccnc3c2cnn3C)Cc2ccc(N3CCN[C@@H](CO)C3)cc21 [Example 50, [(2R)-4-[(4R)-4-methyl-2-(1-methylpyrazolo[3,4-b]pyridin-4-yl)-3,4-dihydro-1H-isoquinolin-6-yl]piperazin-2-yl]methanol] | – | – | – | – | –
13 | 277 nM | Cc1cc(N2Cc3ccc(N4CCC(N)CC4)nc3[C@@H](C)C2)c2cnn(C)c2n1 [Example 58, 1-[(8S)-6-(1,6-dimethylpyrazolo[3,4-b]pyridin-4-yl)-8-methyl-7,8-dihydro-5H-1,6-naphthyridin-2-yl]piperidin-4-amine] | – | – | – | – | –
14 | 371 nM | CO[C@H]1CN(c2ccc3c(n2)[C@@H](C)CN(c2cc(C)nc4c2cnn4C)C3)CC[C@@H]1N [Example 65, (3S,4S)-3-methoxy-1-[(8S)-6-(1,6-dimethylpyrazolo[3,4-b]pyridin-4-yl)-8-methyl-7,8-dihydro-5H-1,6-naphthyridin-2-yl]piperidin-4-amine] | – | – | – | – | –
15 | 250 nM | Cc1cc(N2Cc3cnc(N4CCNCC4)cc3[C@@H](C)C2)c2cnn(C)c2n1 [Example 74, (4R)-2-(1,6-dimethylpyrazolo[3,4-b]pyridin-4-yl)-4-methyl-6-piperazin-1-yl-3,4-dihydro-1H-2,7-naphthyridine] | – | – | – | – | –
